This note sets out measurements from ChEMBL document CHEMBL1759985, “In vitro anticancer activity and evaluation of DNA duplex binding affinity of phenyl-substituted indoloquinolines” (Bioorg Med Chem Lett, 2011).

Active and inactive are the calls of the source. No cut-off for these calls is given here.

Test [1] concerns Nucleic Acid. Nature of the test: Binding affinity to duplex DG DNA assessed as DNA intercalation by circular dichroism spectra analysis. It is filed as nucleic-acid assay.
Test [2] deals with Nucleic Acid. The test can be described thus: Binding affinity to duplex DG DNA in 0.02 M cacodylate buffer assessed as change in melting temperature at 10 uM at pH 7 by UV spectrophotometer analysis. It is filed as nucleic-acid assay.
Test [3] has as its system Nucleic Acid. Nature of the test: Binding affinity to duplex DG DNA in 0.02 M cacodylate buffer assessed as change in melting temperature at 10 uM at pH 7 by UV spectrophotometer analysis in presence of 0.1 M sodium chloride. It is filed as nucleic-acid assay.
The test system of test [4] is Nucleic Acid. Nature of the test: Binding affinity to duplex DA DNA in 0.02 M cacodylate buffer assessed as change in melting temperature at 10 uM at pH 7 by UV spectrophotometer analysis. In kind it is nucleic-acid assay.
Test [5] relates to Nucleic Acid. The test can be described thus: Binding affinity to duplex DA DNA in 0.02 M cacodylate buffer assessed as change in melting temperature at 10 uM at pH 7 by UV spectrophotometer analysis in presence of 0.1 M sodium chloride. It is filed as nucleic-acid assay.
Test [6] relates to Nucleic Acid. The test can be described thus: Binding affinity to duplex DM DNA in 0.02 M cacodylate buffer assessed as change in melting temperature at 10 uM at pH 7 by UV spectrophotometer analysis. In kind it is nucleic-acid assay.
Test [7] concerns Nucleic Acid. The test can be described thus: Binding affinity to duplex DM DNA in 0.02 M cacodylate buffer assessed as change in melting temperature at 10 uM at pH 7 by UV spectrophotometer analysis in presence of 0.1 M sodium chloride. It is filed as nucleic-acid assay.
The subject of test [8] is 5637. Nature of the test: Cytotoxicity against human 5637 cells assessed after 92 hrs by microtiter assay. It is filed as functional, cell-based. The note with it: Homo sapiens, 5637, 92 h.
The test system of test [9] is RT-4. Nature of the test: Cytotoxicity against human RT4 cells after 92 hrs by microtiter assay. It is filed as functional, cell-based. Conditions: RT-4, 92 h.
Test [10] relates to A-427. The test can be described thus: Cytotoxicity against human A427 cells after 92 hrs by microtiter assay. In kind it is functional, cell-based. Conditions: A-427, 92 h.
Test [11] is described as follows: Cytotoxicity against human LCLC-103H cells after 92 hrs by microtiter assay. In kind it is functional, cell-based.
Test [12] concerns DAN-G. The test can be described thus: Cytotoxicity against human DAN-G cells after 92 hrs by microtiter assay. It is filed as functional, cell-based.
The subject of test [13] is MCF7. Nature of the test: Cytotoxicity against human MCF7 cells after 92 hrs by microtiter assay. It is filed as functional, cell-based. Conditions: MCF7, 92 h.
The subject of test [14] is Nucleic Acid. Nature of the test: Binding affinity to duplex DG DNA in 0.02 M cacodylate buffer assessed as melting temperature at 10 uM at pH 7 by UV spectrophotometer analysis. In kind it is nucleic-acid assay.
Test [15] concerns Nucleic Acid. Nature of the test: Binding affinity to duplex DG DNA in 0.02 M cacodylate buffer assessed as melting temperature at 10 uM at pH 7 by UV spectrophotometer analysis in presence of 0.1 M sodium chloride. It is filed as nucleic-acid assay.
For test [16], the system named is Nucleic Acid. The test can be described thus: Binding affinity to duplex DA DNA in 0.02 M cacodylate buffer assessed as melting temperature at 10 uM at pH 7 by UV spectrophotometer analysis. It is filed as nucleic-acid assay.
Test [17] relates to Nucleic Acid. The test can be described thus: Binding affinity to duplex DA DNA in 0.02 M cacodylate buffer assessed as melting temperature at 10 uM at pH 7 by UV spectrophotometer analysis in presence of 0.1 M sodium chloride. It is filed as nucleic-acid assay.
Test [18] relates to Nucleic Acid. Nature of the test: Binding affinity to duplex DM DNA in 0.02 M cacodylate buffer assessed as melting temperature at 10 uM at pH 7 by UV spectrophotometer analysis. It is filed as nucleic-acid assay.
Test [19] concerns Nucleic Acid. Nature of the test: Binding affinity to duplex DM DNA in 0.02 M cacodylate buffer assessed as melting temperature at 10 uM at pH 7 by UV spectrophotometer analysis in presence of 0.1 M sodium chloride. It is filed as nucleic-acid assay.
Test [20] deals with Nucleic Acid. Nature of the test: Binding affinity to duplex DG DNA at 0.75 uM by fluorescence emission spectral analysis. It is filed as nucleic-acid assay.
The test system of test [21] is Nucleic Acid. The test can be described thus: Displacement of ethidium bromide from duplex DG DNA after 5 mins. It is filed as nucleic-acid assay.

`COc1cccc2c(-c3ccc(C(=O)NCCN(C)C)cc3)c3[nH]c4c(OC)cccc4c3nc12`: the result in [1] and in test [20] was Active. The ΔTm is 1.7 °C in test [2]; -0.5 °C in [3]; 2.5 °C in test [4]; 0.5 °C in [5]; 3.1 °C in test [6]; 0.5 °C in test [7]. In addition, the IC50 is 2.1 µM in test [8]; 3.6 µM in test [9]; 1.7 µM in test [10]; 3.2 µM in test [11]; 3.6 µM in [12]; 2900 nM in test [13]. For the same molecule, the melting temperature (Tm) worked out at 42.4 °C in test [14]; 52 °C in [15]; 35.3 °C in test [16]; 45.3 °C in test [17]; 32.8 °C in test [18]; 40.6 °C in [19]. Also, the C50 in [21] is 93 µM.
Regarding `COC(=O)c1ccc(-c2c3cccc(OC)c3nc3c2[nH]c2c(OC)cccc23)cc1`, the IC50 in [8] was 11 µM; in test [9], above 20 µM; in test [10] it was 16.6 µM; in test [11], above 20 µM; in [12], above 20 µM; in [13] it was above 20000 nM.
Take `Cc1cccc2c(-c3ccc(C(=O)NCCN(C)C)cc3)c3[nH]c4c(C)cccc4c3nc12`: the ΔTm in test [2] was 0.8 °C; in test [3], -0.9 °C; in test [4] it was 1.5 °C; in test [5], 0.3 °C; in test [6] it was 1 °C; in test [7], 0.2 °C. The 50% inhibitory concentration (IC50) in [8] came to 3.2 µM; in test [9], 4.2 µM; in [10] it was 3.2 µM; in test [11] it was 3.7 µM; in test [12], 2.6 µM; in test [13], 3000 nM. The melting temperature (Tm) in test [14] is 41.5 °C; in test [15] it was 51.6 °C; in [16], 34.3 °C; in test [17], 45.1 °C; in test [18], 30.7 °C; in [19], 40.3 °C.
Take `COC(=O)c1ccc(-c2c3cccc(C)c3nc3c2[nH]c2c(C)cccc23)cc1`: the IC50 in test [8] is above 20 µM; in test [9], above 20 µM; in test [10] it was above 20 µM; in test [11], above 20 µM; in [12] it was above 20 µM; in test [13], 13800 nM.
